From PMC11013143, “4-Chloroisocoumarins as Chlamydial Protease Inhibitors and Anti-Chlamydial Agents” (Molecules, 2024) come the findings set out here.

The target of one data set is T1, CtHtrA (Chlamydia trachomatis serovar D, UniProt P18584).
T1 construct: made in house; host or cells: E. coli BL21(DE3), pET22b
The experiment in a line: CtHtrA protease inhibition assay. In kind it is biochemical. The conditions noted are these: for IC50: IC50 against CtHtrA; for Relative Potency against CtHtrA: [IC50 of control]/[IC50 test compound]. As for the experimental part: The inhibitory activity of compounds 2a–g against CtHtrA was evaluated. […] As these compounds are reportedly covalent inhibitors of serine proteases, a true IC50 is unable to be calculated. Instead, the residual activity of the protease is monitored over time in response to a range of compound concentrations, and an IC50 value is interpolated from a dose–response curve (see Figures S2–S4 and Tables S1 and S2). This IC50 value is then compared to a positive control (JO146 was used for 2a–g, and 2g was used for 6a–h), giving the ‘relative potency’. This is the established method for assessing CtHtrA inhibitory potency. […] This effect may be due to depth restrictions within the S1 subpocket, as kinetic studies on the rates of protease inhibition in HLE were reduced by larger C-3 alkoxy substituents. Chain branching (iso-propyl and sec-butyl substituents) increased the activity, resulting in a 1.4-fold increase for 2e over 2b and a 2.8-fold improvement for 2g over 2c.
CtHtrA was expressed using an procedure adapted from the literature. Recombinant E. coli BL21(DE3) pET22b was grown in LB media containing 100 ug/mL ampicillin to an OD600 of 0.5-0.6 in 5 × 400 mL batches at 37 °C. Isopropyl β-D-1-thioglactopyranoside (1 M, 400 µL, 1 mM final concentration) was added to each flask and incubated at 30 °C with shaking at 150 rpm for an additional 2.5 h. The culture was centrifuged at 4000× g for 15 min at 4 °C, and the cell pellet was harvested and resuspended in lysis buffer (50 mM phosphate, 10 mM imidazole, 500 mM NaCl, 0.1% Triton X-100, 10% glycerol). Lysozyme was added to the suspended cells and was sonicated in 15 cycles of 15 s, with one minute between cycles while maintaining 4 °C, and then centrifuged at 8000× g for 20 min to remove any debris, retaining the supernatant for protein purification.
TALON® metal affinity resin (Takara cat no. 635652, 5 mL) was added to each lysate tube and washed sequentially with lysis buffer (2 × 45 mL) and stringency buffer (4 × 45 mL) and then eluted with elution buffer (2 × 5 mL), allowing incubations at 4 °C for 20 min per wash, and centrifuging at 2500× g and 4 °C between washes to pellet the resin. The eluates were dialyzed in Tris buffer (pH 7.0, 50 mM, 4 L) with magnesium chloride (20 mM) at 4 °C five times over 24 h, with a minimum of three hours per dialysis change. Protein expression and isolation were confirmed with SDS-PAGE Coomassie stained gel, which was examined for the band at the correct size, and a BCA assay to confirm purified protein concentration prior to use.
CtHtrA was added to 25 wells in a black 96-well plate (40–80 µL, 10 µL increments), to which Tris-HCl buffer (50 mM, pH 7.0 with 20 mM MgCl2) was added to bring the total volume to 90 µL for 10 wells and 85 µL for the remaining 15. JO146 (10 µM, 5 µL) was added to 5 wells and JO146 (1 µM, 5 µL) was added to another 5 wells, with DMSO (5 µL) being added to the remaining 5 as a control. The plate was incubated at 37 °C for 10 min before substrate (MCA-ENLHLPLPIIFK-DNP, 10 µL, 1 mg/mL, 50% isopropanol in buffer) was added and analyzed in a TECAN Infinite Pro M200 plate reader with an excitation wavelength of 340 nm and fluorescence measured at 405 nm with four reads per well at 60 s intervals. A minimum volume of CtHtrA granting a fluorescence change of 300 min^−1 was used for subsequent assay.
The determined appropriate volume of CtHtrA in buffer was added to a 96-well non-transparent black plate and diluted to 85 µL with buffer solution. Drug or control (5 µL) at a maximum of 20% DMSO/80% buffer was added to the appropriate well with DMSO controls, and the plate was incubated for 10 min to allow activation by the protein. MCA-ENLHLPLPIIFK-DNP (Mimotopes, Australia, 1 mg/mL, 10 µL) was added and immediately monitored on a TECAN M200 Infinite plate reader at 37 °C every 60 s for 30 min, using the same wavelengths as for the activity evaluation. […]

Data set [1] deals with T2, Human Leukocyte Elastase (HLE) (Homo sapiens, UniProt P08246).
T2 construct: purchased Athens Research and Technology 16-15-051200
T2 sequence (P08246 30-247 limits assumed): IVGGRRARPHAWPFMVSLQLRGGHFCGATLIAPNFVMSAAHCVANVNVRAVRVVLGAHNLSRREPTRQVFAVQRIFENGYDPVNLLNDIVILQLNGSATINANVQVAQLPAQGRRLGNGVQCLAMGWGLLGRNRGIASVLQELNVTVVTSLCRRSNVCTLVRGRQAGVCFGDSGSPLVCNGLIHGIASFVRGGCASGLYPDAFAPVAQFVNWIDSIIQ
The experiment in a line: HLE protease inhibition assay. Format: biochemical. As for the experimental part: Elastase was purchased from Athens Research and Technology (Cat No. 16-15-051200). Elastase (100 µg) was dissolved in Tris buffer (100 mM Tris, 20 mM CaCl2, pH 8.1, 3.14 mL), giving a concentration of 1.117 µM, and 25 µL was added to each well containing the respective inhibitor. The plate was incubated at 37 °C for 15 min.
N-Suc-AAA-pNA (Sigma Aldrich, Bayswater, Australia, S4760, 100 µL, 1 mg/mL, […]) was added to each well, and the absorbance was monitored every six minutes at 405 nm. The rate of change of absorbance was used as a comparison to controls to determine the % inhibition of protein in Microsoft Excel^TM (v2402), and these values were exported to GraphPad Prism (v8.0.1) for IC50 calculation.

T1 sequence (P18584 17-497): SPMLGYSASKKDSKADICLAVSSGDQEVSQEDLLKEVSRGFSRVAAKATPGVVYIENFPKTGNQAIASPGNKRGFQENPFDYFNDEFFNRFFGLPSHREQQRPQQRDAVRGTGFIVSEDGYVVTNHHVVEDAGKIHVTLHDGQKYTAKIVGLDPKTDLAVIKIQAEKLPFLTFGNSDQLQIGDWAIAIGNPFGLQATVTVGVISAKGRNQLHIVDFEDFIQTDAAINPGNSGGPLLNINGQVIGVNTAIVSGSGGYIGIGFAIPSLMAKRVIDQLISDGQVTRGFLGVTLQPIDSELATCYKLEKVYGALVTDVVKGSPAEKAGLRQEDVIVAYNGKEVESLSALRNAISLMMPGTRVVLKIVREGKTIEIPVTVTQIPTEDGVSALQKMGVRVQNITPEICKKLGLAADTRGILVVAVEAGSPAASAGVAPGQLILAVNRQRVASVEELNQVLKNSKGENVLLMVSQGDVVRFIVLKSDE

The IC50 is the concentration needed to halve the response being measured. As for `CCC(C)Oc1oc(=O)c2ccccc2c1Cl` (racemic) [Compound 2g, (±)-3-sec-Butoxy-4-chloroisocoumarin], the “Relative Selectivity” value at CtHtrA ((relative CtHtrA potency)/(relative HLE potency)) came to 14.6. Also, the half-inhibitory concentration (IC50) turned out to be 9.11 µM at CtHtrA (Table S2, Batch 2, control JO146); 34.9 µM on CtHtrA (Table S2, Batch 3, control 2g); 32.3 µM against CtHtrA (Table S2, Batch 4, control 2g); 28 µM at CtHtrA (Table S2, Batch 5, control 2g); 1.81 µM in data set [1] (Table S1, variable slope four parameter fit, read-out: IC50 against HLE). Moreover, the “Relative Potency against CtHtrA” value on CtHtrA (control JO146) was determined as 6.58. The “Relative Potency against HLE” value in data set [1] ([IC50 of JO146]/[IC50 test compound]) is reported as 0.451.
In the case of `CCC(C)Oc1oc(=O)c2cc(N)ccc2c1Cl` (racemic) [Compound 6a, (±)-7-Amino-4-chloro-3-sec-butoxyisocoumarin], at CtHtrA (Table S2, Batch 3, control 2g), 107 µM corresponded to half-maximal inhibition (IC50). The “Relative Potency against CtHtrA” value on CtHtrA (control 2g) was 0.326.
The like results for `CCC(C)Oc1oc(=O)c2cc(N(C)C)ccc2c1Cl` (racemic) [Compound 6b, (±)-7-(Dimethylamino)-3-sec-butoxy-4-chloroisocoumarin] were, in that order, 309 µM and 0.113.
The matching figures for `CCC(C)Oc1oc(=O)c2cc(NC(C)=O)ccc2c1Cl` (racemic) [Compound 6c, (±)-N-(4-Chloro-1-oxo-3-sec-butoxy-isochromen-7-yl)acetamide]: 221 µM and 0.158.
As a reminder, the melting point is the temperature of the solid-liquid transition. Compound `CCC(C)Oc1oc(=O)c2cc(NC(=O)C(F)(F)F)ccc2c1Cl` (racemic) [Compound 6d, (±)-N-(4-chloro-1-oxo-3-sec-butoxy-isochromen-7-yl)-2,2,2-trifluoroacetamide] returned a melting point of 189 to 190 °C. Also, the “IC50 against CtHtrA” value against CtHtrA (Table S2, Batch 4, control 2g) was “Not active”. The “Relative Potency against CtHtrA” value at CtHtrA (control 2g) is reported as under 0.001.
As for `CCC(C)Oc1oc(=O)c2cc(I)ccc2c1Cl` (racemic) [Compound 6e, (±)-3-sec-Butoxy-4-chloro-7-iodoisocoumarin], on CtHtrA (Table S2, Batch 4, control 2g), the “IC50 against CtHtrA” value was “Not active”. Also, the “Relative Potency against CtHtrA” value on CtHtrA (control 2g) was under 0.001.
In turn, `CCC(C)Oc1oc(=O)c2cc(OC)ccc2c1Cl` (racemic) [Compound 6h, (±)-7-Methoxy-3-sec-butoxy-4-chloroisocoumarin] displayed an IC50 on CtHtrA (Table S2, Batch 5, control 2g) of 152 µM. For the same compound, the “Relative Potency against CtHtrA” value at CtHtrA (control 2g) was 0.184.
